Measurements as given in ChEMBL document CHEMBL1201862, “PubChem BioAssay data set” (2004).
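A five-concentration, 48-hour dose response in 96-well plates underlies each endpoint, interpolated linearly between surrounding concentrations. Here, GI50 denotes the concentration required for 50% inhibition of growth.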 The source made the active and inactive calls. Rule as the data show it: active = GI50 up to about 1.1 µM and inactive = higher.

Experiments:
Assay in all cases: DTP human tumour cell line panel, 48 h
[1] = tested on: UACC-62
[2] = tested on: SR
[3] = tested on: UO-31
[4] = tested on: XF498
[5] = tested on: NCI-H23
[6] = tested on: OVCAR-8
[7] = tested on: SF-539
[8] = tested on: MOLT-4
[9] = tested on: HOP-62
[10] = tested on: HL-60
[11] = tested on: HT-29
[12] = tested on: OVCAR-5
[13] = tested on: LXFL 529
[14] = tested on: A549
[15] = tested on: COLO 205
[16] = tested on: K562
[17] = tested on: KM-20L2
[18] = tested on: SF-295
[19] = tested on: HCT-116
[20] = tested on: SK-MEL-28
[21] = tested on: SK-MEL-2
[22] = tested on: SNB-19
[23] = tested on: M19-MEL
[24] = tested on: SN12C
[25] = tested on: NCI-H226
[26] = tested on: HCT-15
[27] = tested on: SF-268
[28] = tested on: DMS-273
[29] = tested on: OVCAR-4
[30] = tested on: OVCAR-3
[31] = tested on: RXF 393
[32] = tested on: HCC 2998
[33] = tested on: CAKI-1
[34] = tested on: U-251
[35] = tested on: LOX IMVI
[36] = tested on: SNB-75
[37] = tested on: 786-0
[38] = tested on: SK-MEL-5
[39] = tested on: UACC-257
[40] = tested on: M14
[41] = tested on: DMS-114
[42] = tested on: SW-620
[43] = tested on: EKVX
[44] = tested on: NCI-H460
[45] = tested on: Malme-3M
[46] = tested on: CCRF-CEM
[47] = tested on: ACHN
[48] = tested on: A498
[49] = tested on: IGROV-1
[50] = tested on: SK-OV-3
[51] = tested on: TK-10
[52] = tested on: DLD-1
[53] = tested on: KM12
[54] = tested on: NCI-H522
[55] = tested on: SNB-78
[56] = tested on: HOP-18
[57] = tested on: HOP-92
[58] = tested on: RPMI-8226

In the case of `CC(C)(C)C1=CC(=N/N=c2\scc(-c3ccccc3)n2Cc2ccccc2)C=C(C(C)(C)C)C1=O`, the GI50 [1] is reported as > 100 µM (inactive), the GI50 [2] is reported as > 100 µM (inactive) and the GI50 [3] is reported as > 100 µM (inactive). The GI50 [4] was > 100 µM (inactive), the GI50 [5] was > 100 µM (inactive) and the GI50 [6] was > 100 µM (inactive). The GI50 [7] was > 100 µM (inactive), the GI50 [8] was > 100 µM (inactive) and the GI50 [9] was > 100 µM (inactive). For the same compound, the GI50 [10] was > 100 µM (inactive), the GI50 [11] was > 100 µM (inactive) and the GI50 [12] was > 100 µM (inactive). The GI50 [13] was > 100 µM (inactive), the GI50 [14] was > 100 µM (inactive) and the GI50 [15] was > 100 µM (inactive). The GI50 [16] was > 100 µM (inactive), the GI50 [17] was > 100 µM (inactive) and the GI50 [18] was > 100 µM (inactive). The GI50 [19] was > 100 µM (inactive), the GI50 [20] was > 100 µM (inactive) and the GI50 [21] was > 100 µM (inactive). The GI50 [22] was > 100 µM (inactive), the GI50 [23] was > 100 µM (inactive) and the GI50 [24] was > 100 µM (inactive). For the same compound, the GI50 [25] was > 100 µM (inactive), the GI50 [26] was greater than 100 µM and the GI50 [27] was > 100 µM (inactive). The GI50 [28] was > 100 µM (inactive), the GI50 [29] was > 100 µM (inactive) and the GI50 [30] was > 100 µM (inactive). The GI50 [31] was > 100 µM (inactive), the GI50 [32] was > 100 µM (inactive) and the GI50 [33] was > 100 µM (inactive). For the same compound, the GI50 [34] was > 100 µM (inactive), the GI50 [35] was > 100 µM (inactive) and the GI50 [36] was > 100 µM (inactive). For the same compound, the GI50 [37] was > 100 µM (inactive), the GI50 [38] was > 100 µM (inactive) and the GI50 [39] was > 100 µM (inactive). The GI50 [40] was > 100 µM (inactive), the GI50 [41] was > 100 µM (inactive) and the GI50 [42] was > 100 µM (inactive). For the same compound, the GI50 [43] was > 100 µM (inactive), the GI50 [44] was > 100 µM (inactive) and the GI50 [45] was > 100 µM (inactive). For the same compound, the GI50 [46] was > 100 µM (inactive), the GI50 [47] was > 100 µM (inactive) and the GI50 [48] was > 100 µM (inactive).

With `CN(C)c1nc(N(C)C)nc(N(C)CN(C)c2ccc(Cl)cc2)n1` the GI50 [1] was > 100 µM (inactive), the GI50 [49] was > 100 µM (inactive) and the GI50 [3] was > 100 µM (inactive). The GI50 [4] was > 100 µM (inactive), the GI50 [50] was > 100 µM (inactive) and the GI50 [5] was > 100 µM (inactive). The GI50 [6] was > 100 µM (inactive), the GI50 [7] was > 100 µM (inactive) and the GI50 [8] was > 100 µM (inactive). For the same compound, the GI50 [10] was 1.72 µM (inactive), the GI50 [11] was > 100 µM (inactive) and the GI50 [13] was > 100 µM (inactive). The GI50 [14] was > 100 µM (inactive), the GI50 [16] was > 100 µM (inactive) and the GI50 [51] was > 100 µM (inactive). For the same compound, the GI50 [52] was > 100 µM (inactive), the GI50 [18] was > 100 µM (inactive) and the GI50 [19] was > 100 µM (inactive). For the same compound, the GI50 [53] was > 100 µM (inactive), the GI50 [20] was > 100 µM (inactive) and the GI50 [21] was > 100 µM (inactive). The GI50 [22] was > 100 µM (inactive), the GI50 [54] was > 100 µM (inactive) and the GI50 [23] was > 100 µM (inactive). The GI50 [24] was > 100 µM (inactive), the GI50 [25] was > 100 µM (inactive) and the GI50 [26] was greater than 100 µM. The GI50 [27] was > 100 µM (inactive), the GI50 [28] was > 100 µM (inactive) and the GI50 [29] was > 100 µM (inactive). The GI50 [30] was 39 µM (inactive), the GI50 [31] was > 100 µM (inactive) and the GI50 [34] was > 100 µM (inactive). The GI50 [35] was > 100 µM (inactive), the GI50 [36] was > 100 µM (inactive) and the GI50 [38] was > 100 µM (inactive). For the same compound, the GI50 [39] was > 100 µM (inactive), the GI50 [41] was > 100 µM (inactive) and the GI50 [42] was > 100 µM (inactive). The GI50 [44] was > 100 µM (inactive), the GI50 [45] was > 100 µM (inactive) and the GI50 [55] was > 100 µM (inactive). For the same compound, the GI50 [46] was > 100 µM (inactive) and the GI50 [47] was > 100 µM (inactive).

For `CCOC(=O)C(Cc1c(C=O)[nH]c2ccccc12)(NC(=O)c1ccccc1)C(=O)OCC`, the GI50 [49] was 20.4 µM (inactive), the GI50 [2] was > 100 µM (inactive) and the GI50 [3] was 16.1 µM (inactive). For the same compound, the GI50 [4] was 16.4 µM (inactive), the GI50 [50] was 23.9 µM (inactive) and the GI50 [5] was 13.7 µM (inactive). The GI50 [6] was 19.1 µM (inactive), the GI50 [7] was 16.3 µM (inactive) and the GI50 [8] was 6.65 µM (inactive). For the same compound, the GI50 [10] was > 100 µM (inactive), the GI50 [11] was 16.4 µM (inactive) and the GI50 [12] was 20.5 µM (inactive). The GI50 [14] was 19.1 µM (inactive), the GI50 [15] was 18.8 µM (inactive) and the GI50 [16] was 6.46 µM (inactive). The GI50 [51] was 22.4 µM (inactive), the GI50 [52] was 7.93 µM (inactive) and the GI50 [18] was 14.4 µM (inactive). The GI50 [53] was 10.3 µM (inactive), the GI50 [20] was 16.9 µM (inactive) and the GI50 [21] was 16.5 µM (inactive). The GI50 [22] was 4.93 µM (inactive), the GI50 [56] was > 10 µM (inactive) and the GI50 [23] was 16 µM (inactive). The GI50 [24] was 13.2 µM (inactive), the GI50 [25] was 19.5 µM (inactive) and the GI50 [26] was 6.7 µM. The GI50 [27] was 15 µM (inactive), the GI50 [30] was 13 µM (inactive) and the GI50 [31] was 11 µM (inactive). For the same compound, the GI50 [32] was 12.2 µM (inactive), the GI50 [34] was 11.6 µM (inactive) and the GI50 [37] was 16.7 µM (inactive). For the same compound, the GI50 [38] was 11.4 µM (inactive), the GI50 [57] was 11.7 µM (inactive) and the GI50 [39] was 16.9 µM (inactive). For the same compound, the GI50 [40] was 17 µM (inactive), the GI50 [41] was 19.8 µM (inactive) and the GI50 [42] was 14.2 µM (inactive). For the same compound, the GI50 [43] was 18.5 µM (inactive), the GI50 [44] was 24.3 µM (inactive) and the GI50 [45] was 17.7 µM (inactive). For the same compound, the GI50 [46] was 6.87 µM (inactive), the GI50 [47] was 14.4 µM (inactive) and the GI50 [58] was > 100 µM (inactive).

In the case of `O=C(Nc1cccc(C(F)(F)F)c1)c1cc(-c2ccccc2)nc(S)n1`, the GI50 [2] is reported as > 100 µM (inactive), the GI50 [3] is reported as > 100 µM (inactive) and the GI50 [6] is reported as > 100 µM (inactive). The GI50 [9] was > 100 µM (inactive), the GI50 [10] was > 100 µM (inactive) and the GI50 [11] was > 100 µM (inactive). The GI50 [12] was > 100 µM (inactive), the GI50 [13] was > 100 µM (inactive) and the GI50 [15] was > 100 µM (inactive). For the same compound, the GI50 [17] was > 100 µM (inactive), the GI50 [18] was > 100 µM (inactive) and the GI50 [19] was > 100 µM (inactive). The GI50 [53] was > 100 µM (inactive), the GI50 [21] was > 100 µM (inactive) and the GI50 [22] was > 100 µM (inactive). For the same compound, the GI50 [56] was > 100 µM (inactive), the GI50 [23] was > 100 µM (inactive) and the GI50 [24] was > 100 µM (inactive). The GI50 [25] was > 100 µM (inactive), the GI50 [26] was greater than 100 µM and the GI50 [28] was > 100 µM (inactive). The GI50 [29] was > 100 µM (inactive), the GI50 [30] was > 100 µM (inactive) and the GI50 [32] was > 100 µM (inactive). The GI50 [33] was > 100 µM (inactive), the GI50 [35] was > 100 µM (inactive) and the GI50 [57] was > 100 µM (inactive). The GI50 [39] was > 100 µM (inactive), the GI50 [40] was > 100 µM (inactive) and the GI50 [42] was > 100 µM (inactive). The GI50 [44] was > 100 µM (inactive) and the GI50 [45] was > 100 µM (inactive).
